Patent US11458189B2, “Cytoprotective drugs” (BALMES TRANSPLANTATION, priority 2017, dated 2022)
Starred links: 1 amine or outer side, 2 acyl side, 3 side chain; linkers in the order of their positions; H or OH if unused. Positions of bridges follow the written chain, without caps; N, C: chain ends. Non-standard residues stand in square brackets, D forms with d. Residues, ends and D or L forms follow the SMILES beside them. ξ: configuration not given here. *: point of attachment. hTyr(3S-OH,4S-OH,3'-OSO3H) = N[C@H](C(=O)O)[C@H](O)[C@@H](O)c1ccc(O)c(OS(=O)(=O)O)c1; pTerphenylCO(4''-OnC5H11) = CCCCCOc1ccc(-c2ccc(-c3ccc(C(=O)*)cc3)cc2)cc1; Orn(4R-OH,5R-OH) = O=C([C@H](C[C@@H](O)[C@@H](O)N[*:3])N[*:1])[*:2]; hTyr(3S-OH,4S-OH) = N[C@H](C(=O)O)[C@H](O)[C@@H](O)c1ccc(O)cc1; Pro(3S-OH,4S-Me) = C[C@H]1CN[C@H](C(=O)O)[C@H]1O; X1 = CCCCCOc1ccc(-c2cc(-c3ccc(C(=O)*)cc3)no2)cc1; Gln(3R-OH) = NC(=O)C[C@@H](O)[C@H](N)C(=O)O; ξPro(4R-OH) = O=C(O)C1C[C@@H](O)CN1; Hyp = O=C(O)[C@@H]1C[C@@H](O)CN1

System: Sprague Dawley rats
Assay: Survival in acute renal failure model (unilateral renal ischemia-reperfusion with contralateral nephrectomy)
Format: in vivo, rat
Settings: up to 7 days after reperfusion, control group 29%
Method: The protocol is similar to the one described by Narayan P et al, Am J Physiol Renal Physiol, 311(2):F352-61, 2016 and was approved by an ethics committee. In summary, general anesthesia is induced in male Sprague Dawley rats (250-300 g) using sodium pentobarbital (60 mg/kg, ip) instead of ketamine/xylazine in the protocol described by Narayan P et al, Am J Physiol Renal Physiol, 311 (2): F352-61, 2016. A skin incision is made on the dorsal surface and the left kidney is exposed by incisions on the flank. The left renal pedicle is then isolated and clamped for 60 minutes using atraumatic vascular clamps. The kidneys are replaced in the abdominal cavity to maintain temperature and the incision is covered with gauze soaked in 0.9% saline. After the ischemia time (60 minutes), the clamps are released to begin reperfusion. Reperfusion is monitored (kidney color change) for 1 to 2 minutes and physiological saline (1 mL) is administered to prevent dehydration. Next, a right kidney nephrectomy is performed and the incisions are closed with sutures. The animals are kept at approximately 37° C. using a thermoregulated system during the operation. Buprenorphine (0.2 mg/kg sc) is administered before the animals are returned to their cages and once a day until 4 days after reperfusion. […]
The compounds Micafungin (0.25 mg/kg), Anidulafungin (0.35 mg/kg) or the combination of the compounds Micafungin (0.25 mg/kg) and Allopurinol (3 mg/kg) are administered solubilized in physiological saline as a single intravenous injection into the tail vein 60 (±15) minutes before the onset of ischemia. The volume of administration of the compounds is determined on the basis of the body weight (2 mL/kg) of each animal. […]
For each experiment the curve of the number of surviving animals versus the number of days post-ischemia-reperfusion (Kaplan-Meier curve) is shown. The x-axis is graduated from the first day =0 to the seventh day =6 The y-axis is graduated from 0% to 100% of the initial population of the analyzed group. […]

| SMILES | Surviving animals at end of Kaplan-Meier curve (% of initial population of the group) (Anidulafungin 0.35 mg/kg single iv injection 60 min before ischemia) | Surviving animals at end of Kaplan-Meier curve (% of initial population of the group) (Micafungin 0.25 mg/kg single iv injection 60 min before ischemia) |
| --- | --- | --- |
| CCCCCOc1ccc(-c2ccc(-c3ccc(C(=O)N[C@H]4C[C@@H](O)[C@@H](O)NC(=O)[C@@H]5[C@@H](O)[C@@H](C)CN5C(=O)[C@H]([C@@H](C)O)NC(=O)[C@H]([C@H](O)[C@@H](O)c5ccc(O)cc5)NC(=O)C5C[C@@H](O)CN5C(=O)[C@H]([C@@H](C)O)NC4=O)cc3)cc2)cc1 (stereo partly drawn) [Anidulafungin] ({pTerphenylCO(4''-OnC5H11)}-[Orn(4R-OH,5R-OH)]T[ξPro(4R-OH)][hTyr(3S-OH,4S-OH)]T[Pro(3S-OH,4S-Me)]; lactam 1-C) | 75% | – |
| CCCCCOc1ccc(-c2cc(-c3ccc(C(=O)N[C@H]4C[C@@H](O)[C@@H](O)NC(=O)[C@@H]5[C@@H](O)[C@@H](C)CN5C(=O)[C@H]([C@H](O)CC(N)=O)NC(=O)[C@H]([C@H](O)[C@@H](O)c5ccc(O)c(OS(=O)(=O)O)c5)NC(=O)[C@@H]5C[C@@H](O)CN5C(=O)[C@H]([C@@H](C)O)NC4=O)cc3)no2)cc1 [Micafungin, {5-[(1S,2S)-2-[(3S,6S,9S,11R,15S,18S,20R,21R,24S,25S,26S)-3-[(1R)-2-carbamoyl-1-hydroxyethyl]-11,20,21,25-tetrahydroxy-15-[(1R)-1-hydroxyethyl]-26-methyl-2,5,8,14,17,23-hexaoxo-18-[(4-{5-[4-(pentyloxy)phenyl]-1,2-oxazol-3-yl}benzene)amido]-1,4,7,13,16,22-hexaazatricyclo[22.3.0.0]heptacosan-6-yl]-1,2-dihydroxyethyl]-2-hydroxyphenyl}oxidanesulfonic acid] (X1-[Orn(4R-OH,5R-OH)]T[Hyp][hTyr(3S-OH,4S-OH,3'-OSO3H)][Gln(3R-OH)][Pro(3S-OH,4S-Me)]; lactam 1-C) | – | 67% |
